From patent publication US20250129088A1, “CEREBLON E3 UBIQUITIN LIGASE INHIBITOR” (Gan & Lee Pharmaceuticals Co., Ltd., priority 2022, published 2025)

Tests used:
Type in all cases: cell-based
MV-4-11 cells = assay: MV-4-11 cell proliferation inhibition, CCK-8; conditions: Homo sapiens, MV4-11, 96 h, MV-4-11, 4 days
Procedure: The complete medium required for MV-4-11 cells is IMDM (ATCC, Product number: 30-2005) basal medium containing 10% fetal bovine serum. MV-4-11 cells were seeded in a 96-well plate at a density of 7,500 cells/well, and different concentrations of the compound of the present invention and positive control samples Alisertib (source: Bide Pharmaceuticals), Palbociclib (source: Bide Pharmaceuticals), Ibrutinib (source Bide Pharmaceuticals) treated cells. The cells were incubated in a 37° C., 5% CO2 cell incubator for 4 days. Cell viability was detected using the CCK-8 kit (Beyotime, Product number: C0040) according to the manufacturer's instructions. According to the inhibition rate, GraphPad Prism software was used to calculate the IC50 value of each compound for 4 days, and the results are shown in Table 6-8.

VCaP cells = assay: VCaP cell proliferation inhibition, CCK-8; conditions: Homo sapiens, 168 h, 7 days
Text: The complete medium required for VCaP cells is DMEM high glucose (Gibco, Product number: 11995-065) basal medium containing 10% fetal bovine serum. […] Cell viability was detected using the CCK-8 kit (Beyotime, Product number: C0040) according to the manufacturer's instructions.

LNCaP FGC cells = assay: LNCaP FGC cell proliferation inhibition, CCK-8; conditions: Homo sapiens, 96 h, 4 days
Text: The complete medium required for LNCaP FGC cells is RPMI 1640 (ATCC, Product number: 30-2001) basal medium containing 10% fetal calf serum. […] Cell viability was detected using the CCK-8 kit (Beyotime, Product number: C0040) according to the manufacturer's instructions.

[1] = Table 6, positive control Alisertib
[2] = Table 7, positive control Palbociclib

IC50 (LNCaP FGC cells)	SMILES	IC50 (VCaP cells)	further results
–	COc1cc(Nc2ncc3c(n2)-c2ccc(Cl)cc2C(c2c(F)cccc2OC)=NC3)ccc1C(=O)N1CCC2(CC1)COc1cc3c(cc1O2)CN(C1CCC(=O)NC1=O)C3=O (stereo not drawn) [PROTAC 2, 3-(1-(4-((9-chloro-7-(2-fluoro-6-methoxyphenyl)-5H-benzo[c]pyrimido[4,5-e]azepine-2-yl)amino)-2-methoxybenzoyl)-6′-oxo-6′,8′-dihydro-3′H,7′H-spiro[piperidine-4,2′-[1,4]dioxino[2,3-f]isoindole]-7′-yl)piperidine-2,6-dione]	–	IC50 (MV-4-11 cells; [1]): 81 nM
–	COc1cc(Nc2ncc3c(n2)-c2ccc(Cl)cc2C(c2c(F)cccc2OC)=NC3)ccc1C(=O)NCCOCCC(=O)N1CCC2(CCc3cc4c(cc3O2)C(=O)N(C2CCC(=O)NC2=O)C4=O)CC1 (stereo not drawn) [PROTAC 5, 4-((9-chloro-7-(2-fluoro-6-methoxyphenyl)-5H-benzo[c]pyrimido[4,5-e]azepine-2-yl)amino)-N-(2-(3-(7′-(2,6-dioxopiperidin-3-yl)-6′,8′-dioxo-4′,6′,7′,8′-tetrahydro-3′H-spiro[piperidine-4,2′-pyrano[2,3-f]isoindol]-1-yl)-3-oxopropoxy)ethyl)-2-methoxybenzamide]	–	IC50 (MV-4-11 cells; [1]): 420 nM
–	COc1cc(Nc2ncc3c(n2)-c2ccc(Cl)cc2C(c2c(F)cccc2OC)=NC3)ccc1C(=O)NCCOCCC(=O)N1CCC2(CC1)COc1cc3c(cc1C2)C(=O)N(C1CCC(=O)NC1=O)C3=O (stereo not drawn) [PROTAC 6, 4-((9-chloro-7-(2-fluoro-6-methoxyphenyl)-5H-benzo[c]pyrimido[4,5-e]azepine-2-yl)amino)-N-(2-(3-(7′-(2,6-dioxopiperidin-3-yl)-6′,8′-dioxo-4′,6′,7′,8′-tetrahydro-2′H-spiro[piperidine-4,3′-pyrano[2,3-f]isoindol]-1-yl)-3-oxopropoxy)ethyl)-2-methoxybenzamide]	–	IC50 (MV-4-11 cells; [1]): 320 nM
–	COc1cc(Nc2ncc3c(n2)-c2ccc(Cl)cc2C(c2c(F)cccc2OC)=NC3)ccc1C(=O)NCCOCCC(=O)N1CC2(CCc3cc4c(cc3O2)C(=O)N(C2CCC(=O)NC2=O)C4=O)C1 (stereo not drawn) [PROTAC 8, 4-((9-chloro-7-(2-fluoro-6-methoxyphenyl)-5H-benzo[c]pyrimido[4,5-e]azepine-2-yl)amino)-N-(2-(3-(7′-(2,6-dioxopiperidin-3-yl)-6′,8′-dioxo-4′,6′,7′,8′-tetrahydro-3′H-spiro[azetidine-3,2′-pyrano[2,3-f]isoindol]-1-yl)-3-oxopropoxy)ethylbase)-2-methoxybenzamide]	–	IC50 (MV-4-11 cells; [1]): 380 nM
–	CC(=O)c1c(C)c2cnc(Nc3ccc(N4CCN(CCOCCC(=O)N5CCC6(CCc7cc8c(cc7O6)C(=O)N(C6CCC(=O)NC6=O)C8=O)CC5)CC4)cn3)nc2n(C2CCCC2)c1=O (stereo not drawn) [PROTAC 38, 1-(3-(2-(4-(6-((6-acetyl-8-cyclopentyl-5-methyl-7-oxo-7,8-dihydropyridone[2,3-d]pyrimidin-2-yl)amino)pyridin-3-yl)piperazin-1-yl)ethoxy)propionyl)-7′-(2,6-dioxopiperidin-3-yl)-3′,4′-dihydro-6′H-spiro[piperidine-4,2′-pyrano[2,3-f]isoindole]-6′,8′(7′H)-dione]	–	IC50 (MV-4-11 cells; [2]): 5030 nM
930 nM	N#Cc1ccc(O[C@H]2CC[C@H](NC(=O)c3ccc(N4CCC(CN5CC6(CCc7cc8c(cc7O6)C(=O)N(C6CCC(=O)NC6=O)C8=O)C5)CC4)nn3)CC2)cc1Cl (stereo partly drawn) [PROTAC 60]	1200 nM	–
2200 nM	N#Cc1ccc(O[C@H]2CC[C@H](NC(=O)c3ccc(N4CCC5(CC4)CC(N4CCC6(CCc7cc8c(cc7O6)C(=O)N(C6CCC(=O)NC6=O)C8=O)CC4)C5)nn3)CC2)cc1Cl (stereo partly drawn) [PROTAC 61]	80 nM	–
130 nM	N#Cc1ccc(O[C@H]2CC[C@H](NC(=O)c3ccc(N4CC(N5CCC6(CC5)COc5cc7c(cc5C6)C(=O)N(C5CCC(=O)NC5=O)C7=O)C4)nn3)CC2)cc1Cl (stereo partly drawn) [PROTAC 64, N-((1r,4r)-4-(3-chloro-4-cyanophenoxy)cyclohexyl)-6-(3-(7′-(2,6-dioxopiperidin-3-yl)-6′,8′-dioxo-4′,6′,7′,8′-tetrahydro-2′H-spiro[piperidine-4,3′-pyran[2,3-f]isoindole]-1-yl)azetidin-1-yl]pyridazine-3-carboxamide]	960 nM	–
2370 nM	N#Cc1ccc(O[C@H]2CC[C@H](NC(=O)c3ccc(N4CCC(CN5CCC6(CC5)COc5cc7c(cc5O6)CN(C5CCC(=O)NC5=O)C7=O)CC4)nn3)CC2)cc1Cl (stereo partly drawn) [PROTAC 65]	1.1 nM	–
–	CC1(C)C(=O)N(c2ccc(C#N)c(C(F)(F)F)c2)C(=S)N1c1ccc(C(=O)N2CC(CN3CCC4(CCc5cc6c(cc5O4)C(=O)N(C4CCC(=O)NC4=O)C6=O)CC3)C2)c(F)c1 (stereo not drawn) [PROTAC 71]	4570 nM	–
–	CC1(C)C(=O)N(c2ccc(C#N)c(C(F)(F)F)c2)C(=S)N1c1ccc(C(=O)N2CCC(N3CCC4(CC3)COc3cc5c(cc3C4)C(=O)N(C3CCC(=O)NC3=O)C5=O)CC2)c(F)c1 (stereo not drawn) [PROTAC 78, 4-(3-(4-(4-(7′-(2,6-dioxopiperidin-3-yl)-6′,8′-dioxo-4′,6′,7′,8′-tetrahydro-2′H-spiro[piperidine-4,3′-pyrano[2,3-f]isoindol]-1-yl)piperidine-1-carbonyl)-3-fluorophenyl)-4,4-dimethyl-5-oxo-2-thioimidazolidin-1-yl)-2-(trifluoromethyl)benzonitrile]	2700 nM	–
–	CC1(C)C(=O)N(c2ccc(C#N)c(C(F)(F)F)c2)C(=S)N1c1ccc(C(=O)N2CC3(CC(N4CCC5(CC4)COc4cc6c(cc45)C(=O)N(C4CCC(=O)NC4=O)C6=O)C3)C2)c(F)c1 (stereo not drawn) [PROTAC 79, 4-(3-(4-(6-(6-(2,6-dioxopiperidin-3-yl)-5,7-dioxo-6,7-dihydro-2H,5H-spiro[furo[2,3-f]isoindole-3,4′-piperidin]-1′-yl)-2-azaspiro[3.3]heptane-2-carbonyl)-3-fluorophenyl)-4,4-dimethyl-5-oxo-2-thioimidazolidin-1-yl)-2-(trifluoromethyl)benzonitrile]	4090 nM	–
–	CC1(C)C(=O)N(c2ccc(C#N)c(C(F)(F)F)c2)C(=S)N1c1ccc(C(=O)N2CC(N3CCC4(CC3)COc3cc5c(cc34)C(=O)N(C3CCC(=O)NC3=O)C5=O)C2)c(F)c1 (stereo not drawn) [PROTAC 81, 4-(3-(4-(3-(6-(2,6-dioxopiperidin-3-yl)-5,7-dioxo-6,7-dihydro-2H,5H-spiro[furo[2,3-f]isoindole-3,4′-piperidin]-1′-yl)azetidine-1-carbonyl)-3-fluorophenyl)-4,4-dimethyl-5-oxo-2-thioimidazolidin-1-yl)-2-(trifluoromethyl)benzonitrile]	9510 nM	–
–	CC1(C)C(=O)N(c2ccc(C#N)c(C(F)(F)F)c2)C(=S)N1c1ccc(C(=O)N2CCC(F)(CN3CCC4(CCc5cc6c(cc5O4)C(=O)N(C4CCC(=O)NC4=O)C6=O)CC3)CC2)c(F)c1 (stereo not drawn) [PROTAC 82]	1300 nM	–
–	CC1(C)C(=O)N(c2ccc(C#N)c(C(F)(F)F)c2)C(=S)N1c1ccc(C(=O)N2CCC(CN3CCC4(CCc5cc6c(cc5O4)C(=O)N(C4CCC(=O)NC4=O)C6=O)CC3)CC2)c(F)c1 (stereo not drawn) [PROTAC 84]	3800 nM	–
–	CC(=O)c1c(C)c2cnc(Nc3ccc(N4CCNCC4)cn3)nc2n(C2CCCC2)c1=O [Palbociclib, reference compound]	–	IC50 (MV-4-11 cells; [2]): 2090 nM

SMILES	IC50 (LNCaP FGC cells)	IC50 (VCaP cells)	further results
N#Cc1ccc(O[C@H]2CC[C@H](NC(=O)c3ccc(N4CC(N5CCC6(CCc7cc8c(cc7O6)CN(C6CCC(=O)NC6=O)C8=O)CC5)C4)nn3)CC2)cc1Cl (stereo partly drawn) [PROTAC 62]	1160 nM	100 nM	–
N#Cc1ccc(O[C@H]2CC[C@H](NC(=O)c3ccc(N4CCC5(CC4)CC(N4CCC6(CC4)COc4cc7c(cc46)C(=O)N(C4CCC(=O)NC4=O)C7=O)C5)nn3)CC2)cc1Cl (stereo partly drawn) [PROTAC 63]	170 nM	51 nM	–
